Details: Liquid

CCCCOC(C)=O [butyl ethanoate]
Details | mass density [kg/m3]
298.15 K, 100 kPa | 875.7
298.15 K, 1000 kPa | 876.3
298.15 K, 2000 kPa | 877.2
298.15 K, 3000 kPa | 878
298.15 K, 3100 kPa | 878.1
298.15 K, 5000 kPa | 879.9
298.15 K, 10000 kPa | 883.8
298.15 K, 15000 kPa | 887.6
298.15 K, 20000 kPa | 891.3
298.15 K, 25000 kPa | 894.9
298.15 K, 30000 kPa | 899.1
298.15 K, 35000 kPa | 903.7
303.15 K, 100 kPa | 870.4
303.15 K, 1000 kPa | 871.1
303.15 K, 2000 kPa | 872
303.15 K, 3000 kPa | 872.9
303.15 K, 3100 kPa | 873
303.15 K, 5000 kPa | 874.7
303.15 K, 10000 kPa | 878.8
303.15 K, 15000 kPa | 882.8
303.15 K, 20000 kPa | 886.5
303.15 K, 25000 kPa | 890.2
303.15 K, 30000 kPa | 894.4
303.15 K, 35000 kPa | 899.1
308.15 K, 100 kPa | 865.1
308.15 K, 1000 kPa | 865.9
308.15 K, 2000 kPa | 866.9
308.15 K, 3000 kPa | 867.8
308.15 K, 3100 kPa | 867.8
308.15 K, 5000 kPa | 869.6
308.15 K, 10000 kPa | 873.9
308.15 K, 15000 kPa | 878
308.15 K, 20000 kPa | 881.9
308.15 K, 25000 kPa | 885.6
308.15 K, 30000 kPa | 890
308.15 K, 35000 kPa | 894.8
313.15 K, 100 kPa | 859.9
313.15 K, 1000 kPa | 860.8
313.15 K, 2000 kPa | 861.7
313.15 K, 3000 kPa | 862.7
313.15 K, 3100 kPa | 862.7
313.15 K, 5000 kPa | 864.6
313.15 K, 10000 kPa | 869
313.15 K, 15000 kPa | 873.2
313.15 K, 20000 kPa | 877.2
313.15 K, 25000 kPa | 881
313.15 K, 30000 kPa | 885.6
313.15 K, 35000 kPa | 890.5
318.15 K, 100 kPa | 854.9
318.15 K, 1000 kPa | 855.7
318.15 K, 2000 kPa | 856.7
318.15 K, 3000 kPa | 857.8
318.15 K, 3100 kPa | 857.9
318.15 K, 5000 kPa | 859.6
318.15 K, 10000 kPa | 864.2
318.15 K, 15000 kPa | 868.5
318.15 K, 20000 kPa | 872.6
318.15 K, 25000 kPa | 876.5
318.15 K, 30000 kPa | 881.3
318.15 K, 35000 kPa | 886.3
323.15 K, 100 kPa | 849.7
323.15 K, 1000 kPa | 851
323.15 K, 2000 kPa | 852
323.15 K, 3000 kPa | 853
323.15 K, 3100 kPa | 853.1
323.15 K, 5000 kPa | 854.6
323.15 K, 10000 kPa | 859.4
323.15 K, 15000 kPa | 863.9
323.15 K, 20000 kPa | 868.1
323.15 K, 25000 kPa | 872.3
323.15 K, 30000 kPa | 877.3
323.15 K, 35000 kPa | 882.4
328.15 K, 100 kPa | 844.6
328.15 K, 1000 kPa | 845.7
328.15 K, 2000 kPa | 846.8
328.15 K, 3000 kPa | 847.9
328.15 K, 3100 kPa | 848
328.15 K, 5000 kPa | 849.7
328.15 K, 10000 kPa | 854.6
328.15 K, 15000 kPa | 859.3
328.15 K, 20000 kPa | 863.6
328.15 K, 25000 kPa | 867.8
328.15 K, 30000 kPa | 872.5
328.15 K, 35000 kPa | 877.7
333.15 K, 100 kPa | 839.6
333.15 K, 1000 kPa | 840.7
333.15 K, 2000 kPa | 841.8
333.15 K, 3000 kPa | 842.9
333.15 K, 3100 kPa | 842.9
333.15 K, 5000 kPa | 844.9
333.15 K, 10000 kPa | 850
333.15 K, 15000 kPa | 854.8
333.15 K, 20000 kPa | 859.3
333.15 K, 25000 kPa | 863.6
333.15 K, 30000 kPa | 868.6
333.15 K, 35000 kPa | 873.9
338.15 K, 100 kPa | 834.5
338.15 K, 1000 kPa | 835.6
338.15 K, 2000 kPa | 836.7
338.15 K, 3000 kPa | 837.9
338.15 K, 3100 kPa | 838
338.15 K, 5000 kPa | 840.1
338.15 K, 10000 kPa | 845.5
338.15 K, 15000 kPa | 850.1
338.15 K, 20000 kPa | 855
338.15 K, 25000 kPa | 859.5
338.15 K, 30000 kPa | 864.6
338.15 K, 35000 kPa | 870.1
343.15 K, 100 kPa | 829.5
343.15 K, 1000 kPa | 830.5
343.15 K, 2000 kPa | 831.7
343.15 K, 3000 kPa | 832.9
343.15 K, 3100 kPa | 833
343.15 K, 5000 kPa | 835.2
343.15 K, 10000 kPa | 840.7
343.15 K, 15000 kPa | 845.7
343.15 K, 20000 kPa | 850.5
343.15 K, 25000 kPa | 855.1
343.15 K, 30000 kPa | 860.7
343.15 K, 35000 kPa | 866.3
348.15 K, 100 kPa | 824.4
348.15 K, 1000 kPa | 825.4
348.15 K, 2000 kPa | 826.7
348.15 K, 3000 kPa | 827.9
348.15 K, 3100 kPa | 828
348.15 K, 5000 kPa | 830.5
348.15 K, 10000 kPa | 836.1
348.15 K, 15000 kPa | 841.3
348.15 K, 20000 kPa | 846.2
348.15 K, 25000 kPa | 850.9
348.15 K, 30000 kPa | 856.6
348.15 K, 35000 kPa | 862.4
353.15 K, 100 kPa | 819.3
353.15 K, 1000 kPa | 820.4
353.15 K, 2000 kPa | 821.7
353.15 K, 3000 kPa | 822.9
353.15 K, 3100 kPa | 823
353.15 K, 5000 kPa | 825.5
353.15 K, 10000 kPa | 831.3
353.15 K, 15000 kPa | 836.7
353.15 K, 20000 kPa | 841.8
353.15 K, 25000 kPa | 846.7
353.15 K, 30000 kPa | 852.5
353.15 K, 35000 kPa | 858.4
358.15 K, 100 kPa | 811.6
358.15 K, 1000 kPa | 813.2
358.15 K, 2000 kPa | 813.9
358.15 K, 3100 kPa | 815.3
358.15 K, 5000 kPa | 817.7
358.15 K, 10000 kPa | 823.6
358.15 K, 15000 kPa | 829.1
358.15 K, 20000 kPa | 835.5
363.15 K, 100 kPa | 806.1
363.15 K, 1000 kPa | 807.5
363.15 K, 2000 kPa | 808.8
363.15 K, 3000 kPa | 810.1
363.15 K, 3100 kPa | 810.3
363.15 K, 5000 kPa | 812.8
363.15 K, 10000 kPa | 819.2
363.15 K, 15000 kPa | 824.9
363.15 K, 20000 kPa | 830.4
368.15 K, 100 kPa | 800.3
368.15 K, 1000 kPa | 802.1
368.15 K, 2000 kPa | 803.6
368.15 K, 3000 kPa | 804.8
368.15 K, 3100 kPa | 805
368.15 K, 5000 kPa | 807.7
368.15 K, 10000 kPa | 814.3
368.15 K, 15000 kPa | 820.3
368.15 K, 20000 kPa | 825.9
373.15 K, 100 kPa | 795.8
373.15 K, 1000 kPa | 797.2
373.15 K, 2000 kPa | 798.7
373.15 K, 3000 kPa | 800.2
373.15 K, 3100 kPa | 800.4
373.15 K, 5000 kPa | 803.1
373.15 K, 10000 kPa | 809.9
373.15 K, 15000 kPa | 815.9
373.15 K, 20000 kPa | 821.3
378.15 K, 100 kPa | 790.4
378.15 K, 1000 kPa | 791.9
378.15 K, 2000 kPa | 793.7
378.15 K, 3000 kPa | 795.2
378.15 K, 3100 kPa | 795.4
378.15 K, 5000 kPa | 798
378.15 K, 10000 kPa | 804.7
378.15 K, 15000 kPa | 810.8
378.15 K, 20000 kPa | 817.1
383.15 K, 100 kPa | 785.2
383.15 K, 1000 kPa | 786.7
383.15 K, 2000 kPa | 788.3
383.15 K, 3000 kPa | 789.9
383.15 K, 3100 kPa | 790
383.15 K, 5000 kPa | 792.9
383.15 K, 10000 kPa | 800.1
383.15 K, 15000 kPa | 806.7
383.15 K, 20000 kPa | 812.8
388.15 K, 100 kPa | 779.9
388.15 K, 1000 kPa | 781.6
388.15 K, 2000 kPa | 783.2
388.15 K, 3000 kPa | 785.2
388.15 K, 3100 kPa | 785.4
388.15 K, 5000 kPa | 788.4
388.15 K, 10000 kPa | 795.8
388.15 K, 15000 kPa | 802.4
388.15 K, 20000 kPa | 808.6
393.15 K, 100 kPa | 775.2
393.15 K, 1000 kPa | 776.4
393.15 K, 2000 kPa | 778.1
393.15 K, 3000 kPa | 779.5
393.15 K, 3100 kPa | 779.7
393.15 K, 5000 kPa | 782.8
393.15 K, 10000 kPa | 790.6
393.15 K, 15000 kPa | 797.7
393.15 K, 20000 kPa | 804.2
